Experimental data taken from patent publication US20020143040A1, “Heterocyclic aromatic oxazole compounds and use thereof” (priority 1994, published 2002).
Read-outs that look alike come from different tables or passages of the source.

Assays:
[1] = target: T1, human cyclooxygenase-2 (Homo sapiens, UniProt P35354); assay: Inhibitory action on cyclooxygenase-2 (conversion of 14C arachidonic acid into PGH2); conditions: for COX-1/COX-2: ratio of IC50 COX-1 to IC50 COX-2
T1 sequence (P35354 18-604): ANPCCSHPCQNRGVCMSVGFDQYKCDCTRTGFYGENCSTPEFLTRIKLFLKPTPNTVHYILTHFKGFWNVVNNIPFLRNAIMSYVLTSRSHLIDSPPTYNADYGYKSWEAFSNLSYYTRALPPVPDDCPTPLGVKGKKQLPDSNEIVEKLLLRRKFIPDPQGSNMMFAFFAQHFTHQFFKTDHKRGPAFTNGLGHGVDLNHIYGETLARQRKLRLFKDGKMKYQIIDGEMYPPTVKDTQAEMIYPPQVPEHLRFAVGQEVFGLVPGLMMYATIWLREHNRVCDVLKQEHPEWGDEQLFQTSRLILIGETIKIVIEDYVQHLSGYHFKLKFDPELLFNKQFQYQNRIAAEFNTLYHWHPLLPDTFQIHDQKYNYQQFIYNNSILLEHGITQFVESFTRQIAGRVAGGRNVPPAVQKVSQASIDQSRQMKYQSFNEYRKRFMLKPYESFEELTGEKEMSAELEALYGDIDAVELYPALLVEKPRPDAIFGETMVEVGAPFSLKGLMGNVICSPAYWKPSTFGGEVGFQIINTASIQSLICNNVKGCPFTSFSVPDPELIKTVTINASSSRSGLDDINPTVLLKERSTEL
Experimental: The enzymatic activity was determined from the percent conversion of ^14C arachidonic acid into prostaglandin H2 (PGH2) and the decomposed product thereof. That is, a test sample (20 μl), an enzyme solution (20 μl) and distilled water (10 μl) were added to 100 mM Tris-HCl buffer (pH 8, 140 μl) containing hematin (2 μM) and tryptophan (5 mM), and the mixture was thoroughly stirred, which was followed by preincubation at 24° C. for 5 minutes. Then, a ^14C arachidonic acid solution (10 μl) was added and the mixture was reacted at 24° C., whereafter a solution (40 μl) of ethyl ether/methanol/1M citric acid (30/4/1) ice-cooled to −20° C. was added to stop the reaction. The reaction mixture was centrifuged for 5 minutes at 3,000 rpm to give an ether layer which was placed on a thin plate, and developed with ethyl ether/methanol/acetic acid (90/2/0.1) to determine percent conversion (A) from arachidonic acid to PGH2 and the decomposed product thereof.
An enzyme prepared from human platelets was used as an enzyme solution of cyclooxygenase-1, and an enzyme expressed by a yeast, into which cDNA of human cyclooxygenase-2 had been introduced using a kit of Invitrogen Corp., was used as an enzyme solution of cyclooxygenase-2.

[2] = target: cyclooxygenase-1 prepared from human platelets (Homo sapiens, UniProt P23219); assay: Inhibitory action on cyclooxygenase-1 (conversion of 14C arachidonic acid into PGH2); assay type: biochemical; conditions: enzyme prepared from human platelets; preincubation 24° C. 5 minutes; read-out: IC50 (μM) COX-1
Excerpt: (Inhibitory Action on Cyclooxygenase)
Inhibition (%)=(1−A/B)×100

[3] = tested on: carrageenin-induced podedema; assay: Effects on carrageenin-induced podedema; assay type: in vivo, male Donryu rats; conditions: p.o. one hour before carrageenin; limb volume 3 hours after carrageenin; dose inhibiting by 30% relative to control group
Experimental: (Effects on Carrageenin-induced Podedema)
Carrageenin (1%, 0.05 ml) dissolved in physiological saline was subcutaneously injected to the left hindlimb of male Donryu rats to induce podedema. The degree of podedema was evaluated by measuring the volume of the limb 3 hours after carrageenin administration. A test compound (1, 3, 10 or 30 mg/kg) was orally administered one hour before carrageenin administration, and suppression thereby was studied. Inhibitory activity was expressed by the dose (ED30) of the test compound necessary for inhibiting by 30% relative to the control group.

Sequence of cyclooxygenase-1 prepared from human platelets (P23219 24-599): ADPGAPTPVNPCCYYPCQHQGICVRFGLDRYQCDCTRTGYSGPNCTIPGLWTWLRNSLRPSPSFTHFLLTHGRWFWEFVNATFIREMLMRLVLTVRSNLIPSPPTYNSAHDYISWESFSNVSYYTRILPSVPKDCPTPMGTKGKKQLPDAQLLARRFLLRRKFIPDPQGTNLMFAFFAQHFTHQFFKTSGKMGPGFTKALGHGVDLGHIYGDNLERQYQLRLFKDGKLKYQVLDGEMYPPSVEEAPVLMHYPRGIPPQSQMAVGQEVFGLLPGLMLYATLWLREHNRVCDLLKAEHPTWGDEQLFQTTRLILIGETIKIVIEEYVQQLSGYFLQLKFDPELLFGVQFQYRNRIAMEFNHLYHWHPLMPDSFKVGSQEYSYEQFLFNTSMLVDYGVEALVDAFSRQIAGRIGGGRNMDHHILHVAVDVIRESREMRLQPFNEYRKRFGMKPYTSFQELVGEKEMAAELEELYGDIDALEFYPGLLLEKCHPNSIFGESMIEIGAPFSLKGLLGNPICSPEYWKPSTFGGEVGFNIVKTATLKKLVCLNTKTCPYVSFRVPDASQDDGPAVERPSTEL

Work on `Cc1nc(C2CCCCC2)c(-c2ccc(S(N)(=O)=O)c(Cl)c2)o1` [Example 4] yielded an IC50 [1] of over 10 µM.
`Cc1nc(C2CCCCC2)c(-c2ccc(S(N)(=O)=O)c(F)c2)o1` [Example 2, 5-(4-aminosulfonyl-3-fluorophenyl)-4-cyclohexyl-2-methyloxazole] was tested, and the IC50 [2] was over 100 µM, the “carrageenin-induced podedema in rats, ED30 (mg/kg p.o.)” value [3] was 5.5 mg/kg and the COX-1/COX-2 [1] was >1,428.
`COc1ccc2c(c1)c(CC(=O)O)c(C)n2C(=O)c1ccc(Cl)cc1` [Indomethacin, reference compound] was tested, and the “carrageenin-induced podedema in rats, ED30 (mg/kg p.o.)” value [3] was 2.9 mg/kg.
`Cc1nc(-c2ccc(F)cc2)c(-c2ccc(S(N)(=O)=O)c(F)c2)o1` [Example 7, 5-(4-aminosulfonyl-3-fluorophenyl)-4-(4-fluorophenyl)-2-methyloxazole] was tested, and the COX-1/COX-2 [1] was 1,233.
`Cc1nc(C2CCCCC2)c(-c2ccc(S(C)(=O)=O)c(F)c2)o1` [Example 3, 4-cyclohexyl-5-(3-fluoro-4-methylsulfonylphenyl)-2-methyloxazole] was tested, and the COX-1/COX-2 [1] was over 333.
Work on `Cc1nc(-c2ccc(F)cc2)c(-c2ccc(S(N)(=O)=O)cc2)o1` [Control 2, reference compound] yielded an IC50 [2] of 5 µM and an IC50 ([1]; read-out: IC50 (μM) COX-2, enzyme expressed by yeast with cDNA of human cyclooxygenase-2, preincubation 24° C. 5 minutes) of 0.02 µM.
`Cc1nc(C2CCCCC2)c(-c2ccc(S(N)(=O)=O)c(C)c2)o1` [Example 5] showed an IC50 [1] of over 10 µM.
`Cc1nc(C2CCCCC2)c(-c2ccc(S(N)(=O)=O)cc2)o1` [Control 1, reference compound] was tested, and the COX-1/COX-2 [1] was 643.
Work on `Cc1nc(C2CCCCC2)c(-c2cc(F)c(S(N)(=O)=O)c(F)c2)o1` [Example 6] yielded a COX-1/COX-2 [1] of over 625.
